Like-named read-outs stand apart in the source and are kept apart here.
How the values were obtained:
normal NMRI mice = experiment: Effect on acute food intake in normal NMRI mice; format: in vivo; settings: male NMRI mice, 10 nmol/kg subcutaneously once
How it was run: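 Male NMRI mice acclimatized in an HM-2 real-time food intake monitoring system, fasted 6 h before dark phase. Single subcutaneous dose of 10 nmol/kg peptide given 1 h before dark; n=7-8. Food intake expressed as % of vehicle group (50 mM phosphate pH7, 5% Mannitol).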

[1] = molecular target: T1, Human Neuropeptide Y2 Receptor (Homo sapiens, UniProt P49146); experiment: Radioligand binding competition assay (RLB); settings: read-out: Ki
T1 construct: purchased CHEMICON HTS066M
T1 sequence (P49146 1-381): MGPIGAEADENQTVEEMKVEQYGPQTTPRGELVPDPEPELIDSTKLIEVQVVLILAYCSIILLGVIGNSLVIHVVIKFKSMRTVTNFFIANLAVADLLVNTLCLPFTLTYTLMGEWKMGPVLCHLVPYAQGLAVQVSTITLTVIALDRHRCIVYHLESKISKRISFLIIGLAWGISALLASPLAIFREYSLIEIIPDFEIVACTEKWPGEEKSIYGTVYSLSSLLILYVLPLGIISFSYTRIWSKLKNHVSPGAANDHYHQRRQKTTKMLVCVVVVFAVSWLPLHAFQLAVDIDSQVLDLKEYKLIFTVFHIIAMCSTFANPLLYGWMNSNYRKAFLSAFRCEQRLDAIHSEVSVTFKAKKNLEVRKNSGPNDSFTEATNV
How it was run: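 Filtration format; Y2R membrane prep 0.5 μg/well; buffer 50 mM HEPES/5 mM MgCl2/1 mM CaCl2/0.2% ovalbumin pH 7.4; 2 h RT, shaking. Harvest on PEI-soaked GF/C, ice-cold HEPES/500 mM NaCl washes, scintillation count. IC50 by nonlinear fit.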

## CC(C)CC(=O)N[C@@H](C)C(=O)N1CCC[C@H]1C(=O)N[C@@H](CCC(=O)O)C(=O)N[C@@H](CCCCNC(=O)COCCOCCNC(=O)COCCOCCNC(=O)CC[C@H](NC(=O)CCCCCCCCCCCCCCCCC(=O)O)C(=O)O)C(=O)N1CCC[C@H]1C(=O)N[C@@H](CCC(=O)O)C(=O)N[C@@H](CCC(=O)O)C(=O)N[C@@H](CCC(=O)O)C(=O)N[C@@H](C)C(=O)N[C@@H](CO)C(=O)N[C@@H](CCC(=O)O)C(=O)N[C@@H](CCC(=O)O)C(=O)N[C@@H](CCC(=O)O)C(=O)N[C@@H](CC(C)C)C(=O)N[C@@H](CCC(N)=O)C(=O)N[C@@H](CCCNC(=N)N)C(=O)N[C@@H](Cc1ccc(O)cc1)C(=O)N[C@@H](Cc1ccc(O)cc1)C(=O)N[C@H](C(=O)N[C@@H](CO)C(=O)N[C@@H](CC(C)C)C(=O)N[C@@H](CCCNC(=N)N)C(=O)N[C@@H](Cc1c[nH]cn1)C(=O)N[C@@H](Cc1ccc(O)cc1)C(=O)N[C@@H](Cc1ccc(O)cc1)C(=O)N[C@@H](CC(N)=O)C(=O)N[C@@H](Cc1c[nH]c2ccccc12)C(=O)N[C@@H](CC(C)C)C(=O)N[C@H](C(=O)N[C@@H](CCCNC(=N)N)C(=O)N[C@@H](CCC(N)=O)C(=O)N[C@@H](CCCNC(=N)N)C(=O)N[C@@H](Cc1ccc(O)cc1)C(N)=O)[C@@H](C)O)C(C)C [Compound 79, N{alpha-4}-(3-methylbutanoyl)-N{epsilon-7}-[2-(2-{2-[2-(2-{2-[(4S)-4-carboxy-4-(17-carboxyheptadecanamido)butanamido]ethoxy}ethoxy)acetamido]ethoxy}ethoxy)acetamido]-[4A,7K,9E,11E,14E,18Q,22V,28Y,30W,31L]hPYY (4-36)]
Normal NMRI mice
  Acute Food Intake 24 h [% vehicle]: 75 % vehicle
[1]
  Ki: 4.52 nM

## CC(C)CC(=O)N[C@@H](C)C(=O)N1CCC[C@H]1C(=O)N[C@@H](CCC(=O)O)C(=O)N[C@@H](CCCCNC(=O)COCCOCCNC(=O)COCCOCCNC(=O)CC[C@H](NC(=O)CCCCCCCCCCCCCCCCC(=O)O)C(=O)O)C(=O)N1CCC[C@H]1C(=O)N[C@@H](CCC(=O)O)C(=O)N[C@@H](CCC(=O)O)C(=O)N[C@@H](CC(=O)O)C(=O)N[C@@H](C)C(=O)N[C@@H](CO)C(=O)N1CCC[C@H]1C(=O)N[C@@H](CCC(=O)O)C(=O)N[C@@H](CCC(=O)O)C(=O)N[C@@H](CC(C)C)C(=O)N[C@@H](CCC(N)=O)C(=O)N[C@@H](CCCNC(=N)N)C(=O)N[C@@H](Cc1ccc(O)cc1)C(=O)N[C@@H](CCC(=O)O)C(=O)N[C@H](C(=O)N[C@@H](CO)C(=O)N[C@@H](CC(C)C)C(=O)N[C@@H](CCCNC(=N)N)C(=O)N[C@@H](Cc1c[nH]cn1)C(=O)N[C@@H](Cc1ccc(O)cc1)C(=O)N[C@@H](Cc1ccc(O)cc1)C(=O)N[C@@H](CC(N)=O)C(=O)N[C@@H](Cc1c[nH]c2ccccc12)C(=O)N[C@@H](CC(C)C)C(=O)N[C@H](C(=O)N[C@@H](CCCNC(=N)N)C(=O)N[C@@H](CCC(N)=O)C(=O)N[C@@H](CCCNC(=N)N)C(=O)N[C@@H](Cc1ccc(O)cc1)C(N)=O)[C@@H](C)O)C(C)C [Compound 90, N{alpha-4}-(3-methylbutanoyl)-N{epsilon-7}-[2-(2-{2-[2-(2-{2-[(4S)-4-carboxy-4-(17-carboxyheptadecanamido)butanamido]ethoxy}ethoxy)acetamido]ethoxy}ethoxy)acetamido]-[4A,7K,9E,18Q,21E,22V,28Y,30W,31L]hPYY (4-36)]
Normal NMRI mice
  Acute Food Intake 24 h [% vehicle]: 70 % vehicle
[1]; Table 3, human 125I-PYY (1-36) 0.02 nM, Y2 receptor membranes
  Ki: 1.6 nM
